Experimental data taken from US20110195845A1, “Constructs for Expressing Herbicide Tolerance Genes, Related Plants, and Related Trait Combinations” (Dow AgroSciences LLC, priority 2008, published 2011).

Key:
[1] = test system: Escherichia coli BL21-Star (DE3) with AtUbi10 promoter//PAT (3779); test: Plant promoter driven complementation on glufosinate, plasmid 3779; type: cell-based; parameters: key: ++++ = Heavy Lawn Growth; +++ = Lawn Growth; ++ = Lots of Distinct Colonies; + = Scattered Colony Growth; settings: 48 hrs @37 C
Experimental: (§1) Plasmid constructs in which the DSM-2 (v2) and PAT gene coding sequences were expressed, under either the viral promoters CsVMV or the plant promoter AtUbi10, were assayed for complementation on minimal media containing glufosinate. The plasmids 3778 (Rb7 MARv3//AtUbi10 promoter//DSM-2 (v2)//Atu Orf 1 3′UTR), 3779 (Rb7 MARv3//AtUbi10 promoter//PAT//Atu Orf 1 3′UTR), 3264 (CsVMV promoter//DSM-2//Atu Orf 24 3′UTR), 3037 (CsVMV promoter//PAT//Atu Orf 25/26 3′UTR), and 770 (control plasmid containing CsVMV promoter//GUS v3//Atu Orf 24 3′UTR) were transformed into Escherichia coli BL21-Star (DE3) and grown up in complex media. Five microliters of the cultures were plated on minimal media containing increasing concentrations of Glufosinate and incubated at 37° C. for 48 hours.

[2] = test system: Escherichia coli BL21-Star (DE3) with AtUbi10 promoter//DSM-2 (v2) (3778); test: Plant promoter driven complementation on glufosinate, plasmid 3778; type: cell-based; parameters: bacterial growth on minimal media: key: ++++ = Heavy Lawn Growth; +++ = Lawn Growth; ++ = Lots of Distinct Colonies; + = Scattered Colony Growth; settings: for bacterial growth on minimal media: 48 hrs @37 C
Experimental: as §1

[3] = test system: Escherichia coli BL21-Star (DE3) expressing DSM-2 (v2); test: Complementation of cell growth on glufosinate, pDAB4412 (DSM-2 v2); type: cell-based; parameters: bacterial growth on minimal media: key: −− = No Growth; +++ = Distinct Colony Growth; settings: for bacterial growth on minimal media: 24 hrs @28 C, 20 uM IPTG
Experimental: The plasmids, pDAB4434, pDAB4412, and an empty pET vector (control) were transformed into Escherichia coli BL21-Star (DE3) bacterial cells. Expression cultures were initiated with 10-200 freshly transformed colonies into 250 mL LB medium containing 50 μg/ml antibiotic and 75 μM IPTG (isopropyl-[…]). The cultures were grown at 28° C. for 24 hours at 180-200 rpm. Five microliters of the culture was inoculated onto a complex media control and minimal media containing incrementally increasing concentrations of glufosinate and 20 μM IPTG. The cultures were dispersed evenly over the plates and incubated at 28° C. for 24 hours.

[4] = test system: Arabidopsis seed (wildtype, PAT, DSM-2 (v2)); test: DSM-2 (v2) as selectable marker: survival of sown seed after glufosinate spray; type: in vivo, Arabidopsis thaliana
Experimental: The ability to use DSM-2 (v2) as a selectable marker using glufosinate as the selection agent was analyzed with Arabidopsis transformed as described above. Approximately 100 T1 generation Arabidopsis seed (100-150 seeds) containing for DSM-2 (v2) or 2 mg homozygous T5 plants containing PAT were spiked into approximately 10,000 wildtype (sensitive) seed. Each tray of plants received two application timings of 280 g ai/ha glufosinate at the following treatment times: 7 DAP and 11 DAP. Treatments were applied with a DeVilbiss spray tip as previously described. Another 2 mg T1 generation Arabidopsis seed from each was sown and not sprayed as a comparison count. Plants were identified as Resistant or Sensitive 17 DAP.

Wildtype corn = test: Leaf paint with glufosinate in corn; type: in vivo; settings: for % Injury: 2 WAT
Experimental: T0 DSM-2 (v2) plants were painted with a rundown of glufosinate herbicide. Four siblings from each of 15 T0 events were tested, and 4 leaves on each individual plant received a rundown of glufosinate at approximately V8 stage. Rundown treatments were randomized for each rate allowing for variation of treatment location on individual leaves. For corn, 0.25% v/v glufosinate is the minimum effective dose to distinguish sensitive plants from ones with meaningful levels of resistance. Elevated rates were also applied to determine relative levels of resistance (0.5%, 1.0%, and 2.0% v/v). Glufosinate treatments were applied using cotton tipped applicators to a treatment area of approximately 2.5 cm in diameter.
Table 11 compares the response of DSM-2 (v2) and control genes to impart glufosinate resistance to corn T0 transformants. Response is presented in terms of % visual injury 2 WAT. […] Since each T0 is an independent transformation event, one can expect significant variation of individual T0 responses within a given rate. An arithmetic mean and standard deviation is presented for each treatment. Untransformed wildtype corn served as a glufosinate sensitive control. The DSM-2 (v2) gene imparted herbicide resistance to individual T0 corn plants. Within a given treatment, the level of plant response varied greatly and can be attributed to the fact each plant represents an independent transformation event.

CP(=O)(O)CCC(N)C(=O)O (stereo not drawn) [glufosinate] was tested, and the “bacterial growth on minimal media” value ([1]; 250 μg/ml BASTA) was “++++”, the “bacterial growth on minimal media” value ([1]; 500 μg/ml BASTA) was “+++” and the “bacterial growth on minimal media” value ([1]; 1000 μg/ml BASTA) was “+++”. The “bacterial growth on minimal media” value ([1]; 2000 μg/ml BASTA) was “+++”, the “bacterial growth on minimal media” value ([1]; 4000 μg/ml BASTA) was “+++” and the “bacterial growth on minimal media” value ([2]; 250 μg/ml BASTA) was “++++”. The “bacterial growth on minimal media” value ([2]; 500 μg/ml BASTA) was “+++”, the “bacterial growth on minimal media” value ([2]; 1000 μg/ml BASTA) was “+++” and the “bacterial growth on minimal media” value ([2]; 2000 μg/ml BASTA) was “++”. The “bacterial growth on minimal media” value ([2]; 4000 μg/ml BASTA) was “++”, the “concentration in minimal media to which promoter-driven DSM-2 provided resistance” value ([2]; At Ubi10 promoter, minimal media) was 200 µg/mL and the “bacterial growth on minimal media” value ([3]; 250 μg/ml BASTA) was “+++”. The “bacterial growth on minimal media” value ([3]; 500 μg/ml BASTA) was “+++”, the “bacterial growth on minimal media” value ([3]; 1000 μg/ml BASTA) was “+++” and the “bacterial growth on minimal media” value ([3]; 2000 μg/ml BASTA) was “+++”. The “bacterial growth on minimal media” value ([3]; 4000 μg/ml BASTA) was “+++”, the “concentration in minimal media at which expression of DSM-2 complemented resistance” value ([3]; minimal media) was 400 µg/mL and the “Number of Surviving Plants Following glufosinate Spray” value (“Number” for short) ([4]; 280 g ai/ha glufosinate 7 DAP and 11 DAP, Trt 1: 200 mg WT planted) was 0. For the same compound, the “Number” value ([4]; 280 g ai/ha glufosinate, Trt 2: 2 mg PAT planted) was 154, the “Number” value ([4]; 280 g ai/ha glufosinate, Trt 3: 200 mg WT + 2 mg PAT planted) was 121 and the “Number” value ([4]; 280 g ai/ha glufosinate, Trt 4: 2 mg DSM-2 (v2) planted) was 117. The “Number” value ([4]; 280 g ai/ha glufosinate, Trt 5: 200 mg WT + 2 mg DSM-2 (v2) planted) was 121, the “% Injury” value (Wildtype corn; 0.25% v/v glufosinate leaf paint) was 33% and the “% Injury” value (Wildtype corn; 0.5% v/v glufosinate leaf paint) was 50%. The “% Injury” value (Wildtype corn; 1% v/v glufosinate leaf paint) was 84%, the “% Injury” value (Wildtype corn; 2% v/v glufosinate leaf paint) was 90% and the “minimum effective dose to distinguish sensitive plants from ones with meaningful levels of resistance” value (Wildtype corn; corn, leaf paint) was 0.25 % v/v.
